Laboratory results: PubChem BioAssay AID1259407 (Chemical Carcinogenesis Research Information System (CCRIS), 2018)
Entries after “also recorded” stand apart in the source; their conditions may differ. Activity calls are given as the source filed them. The rule behind the calls is not given here.

Tested on: CCRIS mutagenicity, Ames/micronucleus/aberration tests
Test: CCRIS mutagenicity studies

`Nc1ccc([N+](=O)[O-])cc1N` was tested, and the mutagenic call (End Point: IN VITRO CHROMOSOMAL ABERRATIONS, Test System: CHL CELLS, Metabolic Activation: RAT, LIVER, S-9, SODIUM PHENOBARBITAL AND 5,6-BENZOFLAVONE) was “inactive; negative; authors report equivocal results for structural changes at 0.75 , 1.5”, the mutagenic call (Test System: AMES SALMONELLA TYPHIMURIUM, Strain/Indicator: TA98(NR), Metabolic Activation: NONE, Method: PREINCUBATION) was “active; positive” and the mutagenic call (Test System: AMES SALMONELLA TYPHIMURIUM, Strain/Indicator: TA98(NR), Metabolic Activation: RAT, LIVER, S-9, AROCLOR 1254, Method: PREINCUBATION) was “active; positive”. For the same compound, the mutagenic call (Test System: AMES SALMONELLA TYPHIMURIUM, Strain/Indicator: TA98, Metabolic Activation: NONE) was “active; positive”, the mutagenic call (Test System: AMES SALMONELLA TYPHIMURIUM, Strain/Indicator: TA98, Metabolic Activation: NONE, Method: PREINCUBATION) was “active; positive” and the mutagenic call (Test System: AMES SALMONELLA TYPHIMURIUM, Strain/Indicator: TA98, Metabolic Activation: NONE, Method: STANDARD PLATE) was “active; positive”. The mutagenic call (Test System: AMES SALMONELLA TYPHIMURIUM, Strain/Indicator: TA98, Metabolic Activation: PEA APICAL BUD S-9, Method: PREINCUBATION) was “active; positive”, the mutagenic call (Test System: AMES SALMONELLA TYPHIMURIUM, Strain/Indicator: TA98, Metabolic Activation: PEA APICAL BUD S-9, Method: STANDARD PLATE) was “active; positive” and the mutagenic call (Test System: AMES SALMONELLA TYPHIMURIUM, Strain/Indicator: TA98, Metabolic Activation: RAT, LIVER, S-9, AROCLOR 1254) was “active; positive”. The mutagenic call (Test System: AMES SALMONELLA TYPHIMURIUM, Strain/Indicator: TA98, Metabolic Activation: RAT, LIVER, S-9, AROCLOR 1254, Method: PREINCUBATION) was “active; positive”, the mutagenic call (Test System: AMES SALMONELLA TYPHIMURIUM, Strain/Indicator: TA98, Metabolic Activation: RAT, LIVER, S-9, AROCLOR 1254, Method: STANDARD PLATE) was “active; positive” and the mutagenic call (Test System: AMES SALMONELLA TYPHIMURIUM, Strain/Indicator: TA98, Metabolic Activation: RAT, LIVER, S-9, PHENOBARBITAL AND BETA-NAPHTHOFLAVONE, Method: PREINCUBATION) was “active; positive”. The mutagenic call (Test System: AMES SALMONELLA TYPHIMURIUM, Strain/Indicator: TA98, Metabolic Activation: RAT, LIVER, S-9, SODIUM PHENOBARBITAL AND 5,6-BENZOFLAVONE, Method: PREINCUBATION) was “active; positive”, the mutagenic call (Test System: AMES SALMONELLA TYPHIMURIUM, Strain/Indicator: TA98, Metabolic Activation: ZEA MAYS, S-2, Method: STANDARD PLATE) was “active; positive” and the mutagenic call (Test System: AMES SALMONELLA TYPHIMURIUM, Strain/Indicator: TA100(NR), Metabolic Activation: NONE, Method: PREINCUBATION) was “active; positive”. For the same compound, the mutagenic call (Test System: AMES SALMONELLA TYPHIMURIUM, Strain/Indicator: TA100(NR), Metabolic Activation: RAT, LIVER, S-9, AROCLOR 1254, Method: PREINCUBATION) was “active; positive”, the mutagenic call (Test System: AMES SALMONELLA TYPHIMURIUM, Strain/Indicator: TA100, Metabolic Activation: NONE, Method: PREINCUBATION) was “active; positive” and the mutagenic call (Test System: AMES SALMONELLA TYPHIMURIUM, Strain/Indicator: TA100, Metabolic Activation: NONE, Method: STANDARD PLATE) was “active; positive”. For the same compound, the mutagenic call (Test System: AMES SALMONELLA TYPHIMURIUM, Strain/Indicator: TA100, Metabolic Activation: PEA APICAL BUD S-9, Method: PREINCUBATION) was “active; positive”, the mutagenic call (Test System: AMES SALMONELLA TYPHIMURIUM, Strain/Indicator: TA100, Metabolic Activation: PEA APICAL BUD S-9, Method: STANDARD PLATE) was “active; positive” and the mutagenic call (Test System: AMES SALMONELLA TYPHIMURIUM, Strain/Indicator: TA100, Metabolic Activation: RAT, LIVER, S-9, AROCLOR 1254, Method: PREINCUBATION) was “active; positive”. The mutagenic call (Test System: AMES SALMONELLA TYPHIMURIUM, Strain/Indicator: TA100, Metabolic Activation: RAT, LIVER, S-9, AROCLOR 1254, Method: STANDARD PLATE) was “active; positive”, the mutagenic call (Test System: AMES SALMONELLA TYPHIMURIUM, Strain/Indicator: TA100, Metabolic Activation: RAT, LIVER, S-9, PHENOBARBITAL AND BETA-NAPHTHOFLAVONE, Method: PREINCUBATION) was “active; positive” and the mutagenic call (Test System: AMES SALMONELLA TYPHIMURIUM, Strain/Indicator: TA100, Metabolic Activation: ZEA MAYS, S-2, Method: STANDARD PLATE) was “active; positive”. For the same compound, the mutagenic call (Test System: AMES SALMONELLA TYPHIMURIUM, Strain/Indicator: TA104, Metabolic Activation: NONE, Method: STANDARD PLATE) was “active; positive”, the mutagenic call (Test System: AMES SALMONELLA TYPHIMURIUM, Strain/Indicator: TA4001, Metabolic Activation: NONE, Method: STANDARD PLATE) was “inactive; negative” and the mutagenic call (Test System: AMES SALMONELLA TYPHIMURIUM, Strain/Indicator: TA4006, Metabolic Activation: NONE, Method: STANDARD PLATE) was “active; positive”. For the same compound, the mutagenic call (Test System: AMES SALMONELLA TYPHIMURIUM, Strain/Indicator: TA7001, Metabolic Activation: NONE, Method: STANDARD PLATE) was “inactive; negative”, the mutagenic call (Test System: AMES SALMONELLA TYPHIMURIUM, Strain/Indicator: TA7001, Metabolic Activation: RAT LIVER S-9, AROCLOR 1254, Method: STANDARD PLATE) was “inactive; negative” and the mutagenic call (Test System: AMES SALMONELLA TYPHIMURIUM, Strain/Indicator: TA7002, Metabolic Activation: NONE, Method: STANDARD PLATE) was “active; positive”. For the same compound, the mutagenic call (Test System: AMES SALMONELLA TYPHIMURIUM, Strain/Indicator: TA7002, Metabolic Activation: RAT LIVER S-9, AROCLOR 1254, Method: STANDARD PLATE) was “active; positive”, the mutagenic call (Test System: AMES SALMONELLA TYPHIMURIUM, Strain/Indicator: TA7003, Metabolic Activation: NONE, Method: STANDARD PLATE) was “inactive; negative” and the mutagenic call (Test System: AMES SALMONELLA TYPHIMURIUM, Strain/Indicator: TA7004, Metabolic Activation: NONE, Method: STANDARD PLATE) was “active; positive”. For the same compound, the mutagenic call (Test System: AMES SALMONELLA TYPHIMURIUM, Strain/Indicator: TA7004, Metabolic Activation: RAT LIVER S-9, AROCLOR 1254, Method: STANDARD PLATE) was “active; positive”, the mutagenic call (Test System: AMES SALMONELLA TYPHIMURIUM, Strain/Indicator: TA7005, Metabolic Activation: NONE, Method: STANDARD PLATE) was “active; positive” and the mutagenic call (Test System: AMES SALMONELLA TYPHIMURIUM, Strain/Indicator: TA7005, Metabolic Activation: RAT LIVER S-9, AROCLOR 1254, Method: STANDARD PLATE) was “active; positive”. For the same compound, the mutagenic call (Test System: Ames Salmonella typhimurium, Strain/Indicator: TA97a, Metabolic Activation: None, Method: Preincubation) was “active; positive (decrease in mutagenicity when 0.99-15.90 mg/plate of chloroform extrac”, the mutagenic call (Test System: Ames Salmonella typhimurium, Strain/Indicator: TA98, Metabolic Activation: None, Method: Preincubation) was “active; positive (decrease in mutagenicity when 0.99-15.90 mg/plate of chloroform extrac; also recorded: active; positive (dose related decrease in mutagenicity when 1.82-21.90 mg/plate of meth” and the mutagenic call (Test System: CHINESE HAMSTER OVARY, Strain/Indicator: CHO-K1-BH4 (HGPRT)/6-THIOGUANINE, Metabolic Activation: NONE) was “inactive; negative”. The mutagenic call (Test System: CHINESE HAMSTER OVARY, Strain/Indicator: CHO-K1-BH4 (HGPRT)/6-THIOGUANINE, Metabolic Activation: S-9) was “inactive; negative”, the mutagenic call (Test System: E. COLI, Strain/Indicator: WP2 UVRA, Metabolic Activation: HAMSTER, LIVER, S-9, AROCLOR 1254, Method: STANDARD PLATE) was “inactive; negative” and the mutagenic call (Test System: E. COLI, Strain/Indicator: WP2 UVRA, Metabolic Activation: HAMSTER, LIVER, S-9, Method: STANDARD PLATE) was “inactive; negative”. For the same compound, the mutagenic call (Test System: E. COLI, Strain/Indicator: WP2 UVRA, Metabolic Activation: MOUSE, LIVER, S-9, AROCLOR 1254, Method: STANDARD PLATE) was “inactive; negative”, the mutagenic call (Test System: E. COLI, Strain/Indicator: WP2 UVRA, Metabolic Activation: MOUSE, LIVER, S-9, Method: STANDARD PLATE) was “inactive; negative” and the mutagenic call (Test System: E. COLI, Strain/Indicator: WP2 UVRA, Metabolic Activation: NONE, Method: STANDARD PLATE) was “inactive; negative”. The mutagenic call (Test System: E. COLI, Strain/Indicator: WP2 UVRA, Metabolic Activation: RAT, LIVER, S-9, AROCLOR 1254, Method: STANDARD PLATE) was “inactive; negative”, the mutagenic call (Test System: E. COLI, Strain/Indicator: WP2 UVRA, Metabolic Activation: RAT, LIVER, S-9, Method: STANDARD PLATE) was “inactive; negative” and the mutagenic call (Test System: MOUSE LYMPHOMA, Strain/Indicator: L5178Y (TK+/TK-), Metabolic Activation: NONE, Method: SUSPENSION/PLATE) was “active; positive”. The mutagenic call (Test System: MOUSE LYMPHOMA, Strain/Indicator: L5178Y (TK+/TK-), Metabolic Activation: RAT, LIVER, S-9, AROCLOR 1254, Method: SUSPENSION/PLATE) was “active; positive” and the mutagenic call (Test System: UDS RAT HEPATOCYTES, Strain/Indicator: THY INCORP, Metabolic Activation: NONE, Method: AUTORADIOGRAPHY (SERUM-FREE MEDIA)) was “active; positive”.

For `Nc1cccc2ncc(F)cc12`, the mutagenic call (Test System: AMES SALMONELLA TYPHIMURIUM, Strain/Indicator: TA100, Metabolic Activation: RAT, LIVER, S-9, PHENOBARBITAL AND 5,6-BENZOFLAVONE, Method: PREINCUBATION) was “active; positive”.
